Data from patent US12383573B2, “Use of luteolin-7-O-glucoside or luteolin-7-O-glucuronide in preparation of medicine for eye injuries” (BEIJING CHENGYI INVESTMENT CO., LTD., priority 2019, dated 2025).

Assays:
Type in all cases: cell-based
[1] = tested on: human retinal pigment epithelial cells ARPE-19; test: Cytotoxicity on human retinal pigment epithelial cells ARPE-19 (MTT); conditions: ARPE-19, 12.5˜100 μmol/L, 24 h
Experimental: ARPE-19 cells (purchased from Guangzhou Jinnuo Biotechnology Co., Ltd., China) were seeded into RPMI-1640 low-glucose cell culture medium containing 10% fetal bovine serum and 1% dual-antibiotics (penicillin-streptomycin) (culture medium containing 2 g/L D-glucose, 0.3 g/L L-glutamine and 2 g/L sodium bicarbonate), and the medium was replaced once every 3 days for future use.
Cells at exponential growth phase were used, and 100 μl of complete medium was added to each well to reach a concentration of 1×10^4 cells/mL. Then the cells were cultured in a humidified atmosphere at 37° C. and 5% CO2 for 24 h. After the cells fully adhered, luteolin-7-O-glucoside and luteolin-7-O-glucuronide with final concentrations of 12.5 μmol/L, 25 μmol/L, 50 μmol/L, and 100 μmol/L were added respectively, and cultured for 24 h.
The cell viability was determined by the 3-(4,5-dimethyl-2-thiazolyl)-2,5-diphenyl-2-H-tetrazolium […] (MTT) method: 20 μl of 5 mg/ml MTT was added to each well, and the cells were cultured in a CO2 incubator for 4 h, with all operations shielded from light. […] The absorbance of ARPE-19 cells was measured with a microplate reader at 490 nm, and the cell survival rate was calculated as follows: cell survival rate=(OD value of experimental group−OD value of blank group)/(OD of control group−OD of blank group)×100%.

[2] = tested on: human retinal pigment epithelial cells ARPE-19; test: Blue light-induced damage to A2E-pretreated ARPE-19 cells, cell survival (MTT); conditions: 12.5˜50 μmol/L
Experimental: ARPE-19 cells were seeded into RPMI-1640 low-glucose cell culture medium containing 10% fetal bovine serum and 1% dual-antibiotics (penicillin-streptomycin), and the medium was replaced once every 3 days for future use.
Cells at exponential growth phase were used, and cells at 500 μl/well were seeded to a 24-well cell culture plate at a concentration of 5×10^4 cells/mL, and cultured in a humidified atmosphere at 37° C. and 5% CO2. After the cells fully adhered, the medium was replaced with the DMEM culture medium containing 25 μmol/L N-retinylidene-N-retinyl ethanolamine (A2E) for 2 hours of culture. Then, the supernatant was discarded, and the cells were washed 3 times with PBS, added with the luteolin-7-O-glucoside and luteolin-7-O-glucuronide with final concentrations of 12.5 μmol/L, 25 μmol/L, and […] respectively for 6 h of continuous culture, and then placed in a blue light device (50W LED blue light board with a blue light intensity of 3230˜3540 Lux) for 4 h of irradiation. After the light irradiation, the cells were placed in a 37° C. and 5% CO2 incubator again and continued to incubate for 24 h. […] The OD values were measured with a multi-well microplate reader at 490 nm, and the cell survival rate was calculated as follows: cell survival rate=(OD value of experimental group−OD value of blank group)/(OD of control group−OD of blank group)×100%. […]

[3] = tested on: human retinal pigment epithelial cells ARPE-19; test: Intracellular ROS content by DHE staining in blue light-damaged ARPE-19 cells; conditions: A2E + blue light, vs model group
Experimental: A single layer of ARPE-19 cells were seeded and cultured in a 24-well plate with a cell concentration of 5×10^4 cells/well. After treatment as described in Example 2, the cells were washed twice with PBS and reactive oxygen species (ROS) fluorescent probe dihydroethidium (DHE) staining solution with a concentration of 20 μmol/L was added, and the cells were incubated at 37° C. for 20 min. Then, the cells were washed twice with PBS to fully remove the DHE probe that had not entered the cell, and then imaging was performed under an inverted microscope with an excitation wavelength of 540 nm and an emission wavelength of 590 nm.

[4] = tested on: human retinal pigment epithelial cells ARPE-19; test: Hoechst 33342 nuclear staining (apoptosis) in blue light-damaged ARPE-19 cells; conditions: A2E + blue light, vs model group
Experimental: The cells were seeded in a 24-well plate (5×10^4 cells/well), and after the treatment as previously described, the fix solution was added and incubated for 30 min. Then the cells were washed three times with PBS, added with live cell staining solution (Hoechst 33342) with a concentration of 20 μg/mL, and incubated for 15 min at room temperature shielded from light. After the cells were washed with PBS, imaging was performed under an inverted fluorescence microscope with an excitation wavelength of 365 nm and an emission wavelength of 460 nm.

| Structure (SMILES) | cytotoxicity on ARPE-19 (in words) [1] | concentration dependence of the cell survival rate (in words) [2] | intracellular fluorescence intensity (ROS content, DHE staining) [3] | cell status / nuclear condensation (Hoechst 33342, apoptosis) [4] |
| --- | --- | --- | --- | --- |
| O=C(O)[C@H]1O[C@@H](Oc2cc(O)c3c(=O)cc(-c4ccc(O)c(O)c4)oc3c2)[C@H](O)[C@@H](O)[C@@H]1O [luteolin-7-O-glucuronide] | no cytotoxicity | concentration-dependent |  |  |
| O=c1cc(-c2ccc(O)c(O)c2)oc2cc(O[C@@H]3O[C@H](CO)[C@@H](O)[C@H](O)[C@H]3O)cc(O)c12 [luteolin-7-O-glucoside] | no cytotoxicity | concentration-dependent | decreased significantly as the dose increased | the cell status had obviously improved |
